Assay results: the supplement of paper PMC4977894
Structures can show the parent of a compound that is named as a salt. ± gives the standard deviation of the averaged measurements.

Tests used:
[1] = test system: Homo sapiens (human subject panel, olfactory perception); assay: perceived odor pleasantness rating (rating 0-100); higher = more pleasant
Procedure, shortened: (§1)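 Stimuli were molecules diluted in paraffin oil at high and low concentrations, with 1 mL of each sniffed in randomized order across ten visits of 100 stimuli. Participants were 55 healthy humans aged 18–50, excluding the six lowest performers. Subjects who smelled a stimulus moved a computerized slider away from its starting point of 50, and positions were rescaled to 0–100. Familiarity, intensity and pleasantness are each reported as an average over subjects.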

[2] = test system: Homo sapiens (human subject panel, olfactory perception); assay: perceived odor intensity rating (rating 0-100); higher = stronger perceived smell
Procedure, shortened: as §1

[3] = test system: Homo sapiens (human subject panel, olfactory perception); assay: perceived odor familiarity rating (rating 0-100); higher = more familiar
Procedure, shortened: as §1

[4] = odor dilution in paraffin oil: 1/10
[5] = odor dilution in paraffin oil: 1/1,000
[6] = odor dilution in paraffin oil: 1/100,000
[7] = odor dilution in paraffin oil: 1/10,000,000

| SMILES | perceived odor pleasantness rating [1, 4] | perceived odor pleasantness rating [1, 5] | perceived odor intensity rating [2, 4] | perceived odor intensity rating [2, 5] | perceived odor familiarity rating [3, 4] | perceived odor familiarity rating [3, 5] | perceived odor pleasantness rating [1, 6] | perceived odor intensity rating [2, 6] | perceived odor familiarity rating [3, 6] | perceived odor pleasantness rating [1, 7] | perceived odor intensity rating [2, 7] | perceived odor familiarity rating [3, 7] |
| --- | --- | --- | --- | --- | --- | --- | --- | --- | --- | --- | --- | --- |
| CCCCCCCCCC(OC)OC [Decanal dimethyl acetal] | 50.2 ± 29 | 53.6 ± 22 | 70.7 ± 25 | 29.7 ± 30 | 47.6 ± 34 | 41.2 ± 34 |  |  |  |  |  |  |
| CCSSCC [Diethyl disulfide] |  | 21.3 ± 27 |  | 85.9 ± 16 |  | 52.5 ± 35 | 28.4 ± 24 | 60.6 ± 34 | 51.2 ± 32 |  |  |  |
| CCOC(=O)CC(O)C(=O)OCC (stereo unspecified) [Diethyl malate] |  | 41.4 ± 24 |  | 24.6 ± 25 |  | 35.8 ± 28 | 55.2 ± 19 | 12.6 ± 17 | 22.1 ± 26 |  |  |  |
| CCOC(=O)CC(=O)OCC [Diethyl malonate] |  | 71.7 ± 17 |  | 57.1 ± 27 |  | 64.3 ± 24 | 61 ± 23 | 27.4 ± 26 | 42.8 ± 28 |  |  |  |
| CCOC(=O)CCCCCCCCC(=O)OCC [Diethyl sebacate] | 71.3 ± 21 | 55.5 ± 26 | 54.7 ± 27 | 21.4 ± 25 | 64.7 ± 28 | 31.3 ± 31 |  |  |  |  |  |  |
| CCSCC [Diethyl sulfide] |  |  |  |  |  |  | 24.2 ± 22 | 62.5 ± 32 | 37.5 ± 27 | 43.8 ± 23 | 19.7 ± 27 | 42 ± 27 |
| O=C1CCc2ccccc2O1 [Dihydrocoumarin] |  | 64.8 ± 23 |  | 70.9 ± 19 |  | 59.7 ± 29 | 64.6 ± 22 | 35.5 ± 30 | 42.2 ± 30 |  |  |  |
| CCCCCC1=C(C)CCC1=O [Dihydrojasmone] |  | 44.5 ± 26 |  | 62.7 ± 28 |  | 48.1 ± 28 | 48.5 ± 24 | 44.3 ± 28 | 42.9 ± 29 |  |  |  |
| CNc1ccccc1C(=O)OC [Dimethyl anthranilate] |  | 63.1 ± 23 |  | 44.2 ± 31 |  | 53 ± 28 | 53.3 ± 26 | 17.1 ± 21 | 31.2 ± 29 |  |  |  |
| CSSSC [Dimethyl trisulfide (replicate)] |  |  |  |  |  |  | 18.4 ± 22 | 80.1 ± 22 | 59.2 ± 32 | 26.5 ± 23 | 62.9 ± 29 | 50.5 ± 33 |
| CSSSC [Dimethyl trisulfide] |  |  |  |  |  |  | 22.3 ± 24 | 77.6 ± 23 | 52.5 ± 34 | 28.1 ± 25 | 63 ± 28 | 49.1 ± 34 |
| c1ccc(Oc2ccccc2)cc1 [Diphenyl ether] |  | 49.9 ± 26 |  | 55.1 ± 29 |  | 40.4 ± 28 | 46.5 ± 22 | 27 ± 28 | 42.4 ± 29 |  |  |  |
| CCOC(=O)c1ccco1 [Ethyl 2-furoate] | 32 ± 28 | 42.8 ± 24 | 87.4 ± 14 | 40.3 ± 34 | 47.9 ± 33 | 36.6 ± 29 |  |  |  |  |  |  |
| CCOC(=O)C(C)CC (stereo unspecified) [Ethyl 2-methylbutyrate] |  | 75.1 ± 24 |  | 76.5 ± 18 |  | 69.6 ± 30 | 77.9 ± 20 | 55.4 ± 28 | 67.3 ± 25 |  |  |  |
| CCCC(C)C(=O)OCC (stereo unspecified) [Ethyl 2-methylpentanoate (replicate)] |  | 72.2 ± 18 |  | 52.1 ± 29 |  | 59.6 ± 31 | 64.9 ± 20 | 50.5 ± 29 | 52 ± 27 |  |  |  |
| CCCC(C)C(=O)OCC (stereo unspecified) [Ethyl 2-methylpentanoate] |  | 76.8 ± 20 |  | 67.9 ± 22 |  | 67.2 ± 24 | 64.9 ± 21 | 49.4 ± 24 | 50.8 ± 28 |  |  |  |
| CCOC(=O)CCSCc1ccco1 [Ethyl 3-(furfurylthio)propionate] |  |  |  |  |  |  | 19.6 ± 22 | 77.8 ± 18 | 50.2 ± 32 | 32.3 ± 24 | 58.7 ± 28 | 41.6 ± 32 |
| CCOC(=O)C1OC1(C)c1ccccc1 (stereo unspecified) [Ethyl 3-methyl-3-phenylglycidate] |  |  |  |  |  |  | 59.9 ± 25 | 48.2 ± 32 | 48 ± 30 | 53.4 ± 23 | 13.3 ± 28 | 28.4 ± 28 |

| SMILES | perceived odor pleasantness rating [1, 4] | perceived odor pleasantness rating [1, 5] | perceived odor intensity rating [2, 4] | perceived odor intensity rating [2, 5] | perceived odor familiarity rating [3, 4] | perceived odor familiarity rating [3, 5] | perceived odor pleasantness rating [1, 6] | perceived odor intensity rating [2, 6] | perceived odor familiarity rating [3, 6] | perceived odor pleasantness rating [1, 7] | perceived odor intensity rating [2, 7] | perceived odor familiarity rating [3, 7] |
| --- | --- | --- | --- | --- | --- | --- | --- | --- | --- | --- | --- | --- |
| CCCCC(=O)OCC [Ethyl Valerate] |  | 71.4 ± 26 |  | 75.2 ± 22 |  | 67.1 ± 33 | 73.6 ± 20 | 50.6 ± 28 | 58.9 ± 30 |  |  |  |
| CCOc1cc(C=O)ccc1O [Ethyl Vanillin] | 84.3 ± 20 | 83.9 ± 17 | 75.3 ± 20 | 71 ± 26 | 79.8 ± 22 | 77.3 ± 26 |  |  |  |  |  |  |
| CCOC(=O)c1ccccc1 [Ethyl benzoate] |  | 57.1 ± 25 |  | 66.2 ± 24 |  | 50.5 ± 32 | 58.6 ± 24 | 38.4 ± 33 | 43.1 ± 30 |  |  |  |
| CCCCCCCCCC(=O)OCC [Ethyl decanoate] | 58.2 ± 26 | 49.6 ± 24 | 59.8 ± 30 | 21.2 ± 24 | 50.9 ± 30 | 38.9 ± 27 |  |  |  |  |  |  |
| CCOC=O [Ethyl formate] | 36 ± 26 | 48.2 ± 22 | 51.6 ± 35 | 16.5 ± 26 | 43.9 ± 32 | 24.9 ± 20 |  |  |  |  |  |  |
| CCCCCCC(=O)OCC [Ethyl heptanoate] |  | 62.6 ± 26 |  | 69.1 ± 23 |  | 59.4 ± 27 | 55.9 ± 25 | 34.8 ± 28 | 44.3 ± 29 |  |  |  |
| CCCCCCCCCCCCCC(=O)OCC [Ethyl myristate] | 50.6 ± 26 | 42.8 ± 25 | 39.1 ± 28 | 20.7 ± 24 | 40.5 ± 27 | 38.1 ± 33 |  |  |  |  |  |  |
| CCCCCCCC(=O)OCC [Ethyl octanoate] |  | 66.2 ± 22 |  | 54.7 ± 29 |  | 52.7 ± 33 | 61.9 ± 22 | 46.7 ± 31 | 52 ± 29 |  |  |  |
| C/C=C/C=C/C(=O)OCC [Ethyl sorbate] |  | 35.3 ± 26 |  | 75.4 ± 17 |  | 53.1 ± 29 | 54.8 ± 20 | 26.1 ± 27 | 41.5 ± 30 |  |  |  |
| CCCCCCCCCCCCCCCCCC(=O)OCC [Ethyl stearate] | 45.7 ± 25 | 43.4 ± 15 | 46.8 ± 33 | 17 ± 17 | 38.3 ± 34 | 33.1 ± 24 |  |  |  |  |  |  |
| CCCCCCCCCCC(=O)OCC [Ethyl undecanoate] | 52.8 ± 26 | 50.1 ± 28 | 69.9 ± 21 | 38.8 ± 28 | 49.9 ± 34 | 46.8 ± 28 |  |  |  |  |  |  |
| C=CCc1ccc(OC(C)=O)c(OC)c1 [Eugenyl Acetate] |  | 63.9 ± 23 |  | 52.3 ± 30 |  | 61.4 ± 28 | 58 ± 25 | 21.1 ± 28 | 37.7 ± 30 |  |  |  |
| O=C(O)/C=C/C(=O)O [Fumaric acid] | 36.9 ± 24 | 49.5 ± 25 | 58.8 ± 26 | 17.1 ± 23 | 51.9 ± 32 | 44 ± 31 |  |  |  |  |  |  |
| OCc1ccco1 [Furfuryl alcohol] |  | 39.6 ± 23 |  | 56.7 ± 29 |  | 50.3 ± 27 | 44.6 ± 24 | 22.8 ± 22 | 33.6 ± 28 |  |  |  |
| NCC(=O)O [Glycine] | 59.4 ± 23 | 53.3 ± 25 | 50 ± 28 | 17.9 ± 23 | 47.3 ± 28 | 40.8 ± 27 |  |  |  |  |  |  |
| COc1ccccc1O [Guaiacol (replicate)] |  |  |  |  |  |  | 37.6 ± 25 | 67.4 ± 29 | 47.2 ± 30 | 36.9 ± 19 | 54.8 ± 28 | 44 ± 30 |
| COc1ccccc1O [Guaiacol] |  |  |  |  |  |  | 41.6 ± 26 | 61.8 ± 28 | 47.3 ± 31 | 40.9 ± 25 | 48.6 ± 32 | 39.4 ± 28 |
| COc1ccccc1OC(=O)Cc1ccccc1 [Guaiacyl phenylacetate] | 42.2 ± 29 | 37.2 ± 28 | 71.5 ± 22 | 60.8 ± 28 | 58.5 ± 28 | 45.1 ± 32 |  |  |  |  |  |  |
